Reference: patent US20020026053A1, “Novel 3-(substituted) -2- indolinones compounds and use thereof as inhibitors of protein kinase activity” (priority 1997, published 2002)

Biological target: T1, Met receptor (EGFR/Met chimeric cells, EMR) (Homo sapiens, UniProt P08581)
T1 construct: expressed in transfected cells; the other entry of the earlier key: EGFR (P00533, Epidermal growth factor receptor)
Assay: Met Autophosphorylation Assay
Format: biochemical
Details: protocol P.130
Summary of the method: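 Met phosphorylation was measured by capture ELISA. Lysates (90 μg/100 μl, HNTG plus 1 mM PMSF) from transiently transfected EGFR/Met chimera (EMR) cells were bound for 60 min at room temperature to wells holding rabbit anti-Met (C-28) on goat anti-rabbit coat. Phosphotyrosine was the read-out.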

T1 sequence (P08581 with tags, fused parts or gaps): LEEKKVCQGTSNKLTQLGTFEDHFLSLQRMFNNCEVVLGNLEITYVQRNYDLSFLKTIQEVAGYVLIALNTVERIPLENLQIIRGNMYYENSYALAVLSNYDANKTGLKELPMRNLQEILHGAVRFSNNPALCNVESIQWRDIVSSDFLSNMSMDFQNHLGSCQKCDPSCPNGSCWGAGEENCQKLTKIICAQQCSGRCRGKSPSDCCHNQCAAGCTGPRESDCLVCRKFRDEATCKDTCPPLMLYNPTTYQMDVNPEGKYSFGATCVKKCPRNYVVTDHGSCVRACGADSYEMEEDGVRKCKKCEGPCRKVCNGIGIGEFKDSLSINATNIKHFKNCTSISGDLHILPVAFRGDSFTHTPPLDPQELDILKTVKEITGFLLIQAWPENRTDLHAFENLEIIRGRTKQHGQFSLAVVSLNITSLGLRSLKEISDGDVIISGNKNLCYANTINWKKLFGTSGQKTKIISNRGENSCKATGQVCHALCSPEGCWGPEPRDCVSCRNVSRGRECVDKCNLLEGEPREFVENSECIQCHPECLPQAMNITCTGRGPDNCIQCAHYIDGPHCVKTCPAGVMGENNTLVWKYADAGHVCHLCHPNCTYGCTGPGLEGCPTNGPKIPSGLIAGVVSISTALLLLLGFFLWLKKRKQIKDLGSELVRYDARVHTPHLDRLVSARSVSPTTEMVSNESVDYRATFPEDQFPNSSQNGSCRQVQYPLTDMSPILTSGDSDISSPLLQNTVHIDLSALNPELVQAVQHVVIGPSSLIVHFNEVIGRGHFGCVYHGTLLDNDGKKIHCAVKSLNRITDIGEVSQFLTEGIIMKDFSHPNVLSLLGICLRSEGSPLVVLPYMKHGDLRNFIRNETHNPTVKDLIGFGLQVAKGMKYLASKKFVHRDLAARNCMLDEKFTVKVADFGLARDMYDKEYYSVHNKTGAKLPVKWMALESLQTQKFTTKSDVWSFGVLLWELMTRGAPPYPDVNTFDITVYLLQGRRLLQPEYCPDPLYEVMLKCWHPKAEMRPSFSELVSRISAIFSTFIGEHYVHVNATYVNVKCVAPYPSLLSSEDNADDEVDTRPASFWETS

Row | Compound | Met Kinase % Inhibition (P.130) [%]
1 | Cc1c(Br)cc(Br)c2c1C(=Cc1cc(F)ccc1F)C(=O)N2 [10737/H04] | 63.0
2 | Cc1c(Br)cc(Br)c2c1C(=Cc1cccc(F)c1F)C(=O)N2 [10737/H05] | 76.5
3 | COc1ccc(C=C2C(=O)Nc3c(Br)cc(Br)c(C)c32)cc1F [10737/H06] | 28.7
